{"source": "patent US11160826B1", "about": "“Cholesterol lowering drugs for the treatment of hepatic encephalopathy” (United States Government as represented by the Department …, priority 2017, dated 2021)", "key": {"[1]": {"tested_on": "AOM-induced acute liver failure", "assay": "Neurological score and time to coma in the AOM mouse model of acute liver failure / hepatic encephalopathy", "assay_type": "in vivo, C57Bl/6 mice", "conditions": "ICV infusion started 3 days prior to AOM; for neurological decline (neurological score): AOM-treated mice (100 mg/kg ip), 100 mg/kg; for time taken to reach hepatic coma: AOM-treated mice", "method": "(§1) Acute liver failure and HE was induced using the hepatotoxin azoxymethane (AOM) as previously described (McMillian, M. et al. (2016) Am. J. Pathol. 186(2): 312-23; McMillin, M. et al. Front Cell Neurosci. (2017) 11: 191; McMillin, M. et al. (2014) Journal of Hepatology 6(1): 1260-6; McMillin, M. et al. (2016) J. Neuroinflammation 13(1): 198). Briefly, C57Bl/6 or Cyp7A1−/− mice were injected with AOM (100 mg/kg ip) and placed on heating pads set to 37° C. to ensure normothermia. To reduce serum and cortical bile acid levels, C57Bl/6 mice were fed a diet supplemented with 2% cholestyramine (Dyets Inc.; Bethelhem, Pa.), or the control diet AIN-93G, for 3 days prior to the injection of AOM. […] This same approach was used to infuse 2-hydroxypropyl-β-cyclodextrin (2-HβC; 6 mg/kg/day, MilliporeSigma) to inhibit cholesterol accumulation. The infusion cannulas were implanted using the co-ordinates AP −0.34, ML −1.0, DV −2.0. This surgery was performed 3 days prior to the injection of AOM to allow the mice to recover prior to the onset of acute liver failure to minimize mortality.\nStarting at 12 hr after injection, mice were monitored at least every 2 hours for body temperature, weight and neurological score as previously described (McMillin, M. et al. Front Cell Neurosci. (2017) 11: 191; McMillin, M. et al. (2016) J. Neuroinflammation 13(1): 198). The neurological score was assessed by an investigator blind to the treatment groups and is a summation of the scores given for the following parameters: pinna reflex, corneal reflex, tail flexion, escape response, righting reflex and gait. Each parameter was assigned a score between 2 (normal) and 0 (absence of reflexes and presence of severe ataxia), and summed to give a neurological score out of 12. At approximately 16 hours after AOM injection, the gait of these experimental mice was further examined using ventral plane imaging technology (DigiGait, Mouse Specifics Inc, Framingham, Mass., USA) which images the underside of animals walking atop a motorized, transparent treadmill belt thereby generating digital paw prints. These paw prints were analyzed using DigiGait Analysis and Imager software (Mouse Specifics Inc, Framingham, Mass., USA) and measures of neuromuscular function were quantified, including the paw angle in fore- and hind limbs (to measure the degree of external rotation), gait symmetry (ratio of forelimb stepping frequency to hindlimb stepping frequency) and the ataxia coefficient for fore and hind limbs (calculated by [maximum stride length−minimum stride length]/average stride length). […]"}, "[2]": {"tested_on": "AOM-induced liver damage", "assay": "Assessment of liver damage and function (H&E, plasma ALT, AST)", "assay_type": "in vivo, C57Bl/6 mice", "conditions": "20 hour post-AOM injection; central (ICV) infusion", "method": "as §1, with “This surgery was performed 3 days prior to the injection of AOM to allow the mice to recover prior to the onset of acute liver failure to minimize mortality.” left out\nLiver damage was assessed by H&E staining according to previously published protocols (McMillin, M. et al. (2017) Front Cell Neurosci. 11: 191). […]\nLiver function was assessed by measuring plasma alanine aminotransferase (ALT) and aspartate aminotransferase (AST) using the IDEXX Catalyst One machine from IDEXX Laboratories, Inc (Westbrook, […].)."}, "[3]": {"tested_on": "AOM-induced acute liver failure", "assay": "DigiGait ventral plane gait analysis of AOM-treated mice", "assay_type": "in vivo, C57Bl/6 mice", "conditions": "approximately 16 hours after AOM injection", "method": "as §1\nStarting at 12 hr after injection, mice were monitored at least every 2 hours for body temperature, weight and neurological score as previously described (McMillin, M. et al. Front Cell Neurosci. (2017) 11: 191; McMillin, M. et al. (2016) J. Neuroinflammation 13(1): 198). The neurological score was assessed by an investigator blind to the treatment groups and is a summation of the scores given for the following parameters: pinna reflex, corneal reflex, tail flexion, escape response, righting reflex and gait. […] These paw prints were analyzed using DigiGait Analysis and Imager software (Mouse Specifics Inc, Framingham, Mass., USA) and measures of neuromuscular function were quantified, including the paw angle in fore- and hind limbs (to measure the degree of external rotation), gait symmetry (ratio of forelimb stepping frequency to hindlimb stepping frequency) and the ataxia coefficient for fore and hind limbs (calculated by [maximum stride length−minimum stride length]/average stride length)."}, "[4]": {"tested_on": "models of Niemann-Pick Type C disease", "conditions": "Davidson et al. 2009; cited from earlier work"}, "[5]": {"tested_on": "cholesterol", "assay": "Measurement of brain cholesterol (total/free kit, Nile Red, Filipin III staining)", "assay_type": "in vivo, C57Bl/6 mice", "method": "as §1\nTotal, free and esterified cholesterol was assessed in brain homogenates using a BioVision Total Cholesterol and Cholesteryl Ester Assay Kit following the instructions from the vendor. The subcellular location of cholesterol was assessed using Nile Red staining (for intracellular cholesterol (Pol, A. et al. (2001) J. Cell Biol. 152(5): 1057-70)) and Filipin III staining (for membrane bound cholesterol (Vanier and Latour (2015) Methods Cell Biol. 126: 357-75)). Briefly, mice were transcardially perfused with ice-cold phosphate buffered saline (PBS), followed by 4% paraformaldehyde (PFA) in PBS. Whole brains were rapidly removed and post-fixed in PFA overnight at 4° C. Brains were cryoprotected in 30% sucrose (in PBS) and embedded in OCT compound. Thirty micrometer sections were cut through the frontal cortex region; sections were rinsed in PBS and further fixed in 4% PFA for 10 minutes at room temperature. Free-floating sections were incubated with Filipin III (0.5 μg/mL in 10% bovine serum albumin/PBS) for 2 hours at room temperature, or with Nile Red (10 μg/mL in PBS) for 30 minutes at room temperature. Sections were washed in PBS, mounted onto microscope slides and imaged using a Bio-Rad Zoe™ Fluorescent Cell Imager (Hercules, Calif.). Field images were quantified for percent-positive area of Nile Red or Filipin III staining using ImageJ software (National Institutes of Health, Bethesda, Md.)."}, "[6]": {"tested_on": "AOM-induced acute liver failure", "conditions": "mouse model of acute liver failure, McMillin et al. 2016; cited from earlier work"}, "[7]": {"tested_on": "Cyp46A1", "assay": "Expression of Cyp46A1 in primary cortical neuronal culture", "assay_type": "cell-based, mouse", "conditions": "10 μM with 10 μM DCA, 24 hr", "source_text": "Primary cortical neurons were isolated and cultured using methodology previously described (McMillin, M. et al. (2014) Journal of hepatology 61(6): 1260-6). Primary neurons were isolated from P1 mouse pups. Mice were decapitated and whole brains were removed. The cortex was isolated and meninges and dura were removed. Cortical tissue was mechanically disrupted and filtered through a 100 μm filter. Neurons were pelleted by centrifugation at 1400 g. Neurons were suspended in media and plated on 12-well plates with 750,000 cells per well. After 24 hours, cells were washed and media was replaced and supplemented with 2% B27 growth supplement. […] At this point, cells were lysed and used for immunoblot or RTPCR analyses.\nRNA was extracted from tissue or primary neurons using an RNeasy Mini Kit (Qiagen, Germantown, Md.) according to the manufacturer's instructions. Synthesis of cDNA was accomplished using a Bio-Rad iScript™ cDNA Synthesis Kit. […]\nSpecific antibodies against Cyp46A1 and β-actin were used. […] Data are expressed as fold change in fluorescent band intensity of target antibody divided by β-actin or GAPDH, which are used as loading controls. […] Band intensity quantifications were performed using ImageJ software."}, "[8]": {"conditions": "listed as 2-hydroxypropyl-cyclodextrin"}, "[9]": {"conditions": "AOM-treated mice, coma time point, pretreatment from 3 days prior to AOM"}}, "note": "Entries after “also recorded” stand apart in the source; their conditions may differ.", "data": [{"compound": "2-hydroxypropyl-β-cyclodextrin [2-HβC]", "values": [{"measurement": "neurological decline (neurological score)", "setting": "[1]", "value": "significantly delayed the neurological decline; also recorded: reduces neurological decline"}, {"measurement": "neurological decline (neurological score)", "setting": "[1]; [8]", "value": "dramatically delayed the onset of neurological complications"}, {"measurement": "time taken to reach hepatic coma", "setting": "[1]", "value": "increased the time taken to reach hepatic coma"}, {"measurement": "time taken to reach hepatic coma", "setting": "[1]; [8]", "value": "increased the time it took the mice to reach hepatic coma"}, {"measurement": "AOM-induced liver damage (H&E staining, ALT, AST)", "setting": "[2]", "value": "does not have any hepatoprotective effects; also recorded: does not influence liver function"}, {"measurement": "ataxia co-efficient of fore and hind limbs", "setting": "[3]", "value": "returned the ataxia co-efficient back to control levels"}, {"measurement": "gait symmetry (ratio of forelimb to hind limb stepping frequency)", "setting": "[3]", "value": "returned the gait symmetry to control levels"}, {"measurement": "paw angle of fore and hind limbs (degree of external rotation)", "setting": "[3]", "value": "reduced the paw angle of AOM-treated mice to values similar to control"}, {"measurement": "excessive cholesterol buildup in the brain", "setting": "[4]", "value": "prevent excessive cholesterol buildup in the brain"}, {"measurement": "cortex cholesterol accumulation", "setting": "[5]; AOM-treated mice, FIG. 17 legend", "value": "reduced"}, {"measurement": "AOM-induced increase in Filipin III staining (membrane-bound cholesterol) in the cortex", "setting": "[5]; [9]", "value": "attenuated the AOM-induced increase"}, {"measurement": "AOM-induced increase in Nile Red staining (intracellular cholesterol) in the cortex", "setting": "[5]; [9]", "value": "attenuated the AOM-induced increase"}, {"measurement": "AOM-induced increase in free cholesterol content in the cortex", "setting": "[5]; [9]", "value": "did prevent the AOM-induced buildup"}, {"measurement": "AOM-induced increase in total cholesterol content in the cortex", "setting": "[5]; [9]", "value": "did prevent the AOM-induced buildup"}, {"measurement": "basal levels of cholesterol in the cortex", "setting": "[5]; vehicle-treated mice, infusion into the brain", "value": "did not decrease"}]}, {"compound": "C[C@H](CCC(=O)O)[C@H]1CC[C@H]2[C@@H]3[C@H](O)C[C@@H]4C[C@H](O)CC[C@]4(C)[C@H]3C[C@H](O)[C@]12C", "note": "[cholic acid]", "values": [{"measurement": "neurological decline associated with acute liver failure (previous studies)", "setting": "[6]", "value": "worsened the neurological decline"}]}, {"compound": "C/C=C1\\C(=O)C[C@H]2[C@@H]3CCC4=CC(=O)CC[C@]4(C)[C@H]3CC[C@]12C", "note": "[guggulsterone, Guggulsterone]", "values": [{"measurement": "DCA-induced decrease of Cyp46A1 expression in primary neurons", "setting": "[7]", "value": "could be prevented by pre-treatment"}]}]}
